Results as given in patent US10301355B2, “Method of using pharmaceutical compositions comprising selective peptide-based agonists of melanocortin 1 receptor” (University of Cincinnati, priority 2012, dated 2019).
“Also recorded” adds a separate entry of the source.

Experiments:
[1] = target: T1, MC1R (Homo sapiens, UniProt Q01726); assay: Stimulation of cAMP formation in cultured human melanocytes; assay type: cell-based; set-up: endogenous in cells; host or cells: cultured human melanocytes
Procedure: Peptides were tested on cultured human melanocytes for their capacity to activate MC1R, as measured by stimulating cAMP formation. After 45 minutes of treatment with different concentrations of peptides, cAMP levels were measured using a I^125-labeled radioimmunoassay kit.
(§1) Peptides were tested as described in Example 4 above on cultured human melanocytes for their capacity to activate MC1R, as measured by stimulating cAMP formation, and for their capacity for stimulating tyrosinase activity, the rate-limiting enzyme for melanin synthesis. The tested peptides were synthesized according to the formula: Ar(CH2)mX^1—X^2—CO—X^3—X^4—X^5-(Trp)n-NX^6R wherein X^1 and X^2 are absent, X^3 is His, X^5 is Arg, and X^6 is H. X^4 amino acids were in the D-stereoisomer form, unless otherwise noted.

[2] = target: T2, hMC5R (Homo sapiens, UniProt P33032); assay: cAMP stimulation in heterologous cells expressing hMC5R; assay type: cell-based
T2 construct: expressed in transfected cells
T2 sequence (P33032 whole entry): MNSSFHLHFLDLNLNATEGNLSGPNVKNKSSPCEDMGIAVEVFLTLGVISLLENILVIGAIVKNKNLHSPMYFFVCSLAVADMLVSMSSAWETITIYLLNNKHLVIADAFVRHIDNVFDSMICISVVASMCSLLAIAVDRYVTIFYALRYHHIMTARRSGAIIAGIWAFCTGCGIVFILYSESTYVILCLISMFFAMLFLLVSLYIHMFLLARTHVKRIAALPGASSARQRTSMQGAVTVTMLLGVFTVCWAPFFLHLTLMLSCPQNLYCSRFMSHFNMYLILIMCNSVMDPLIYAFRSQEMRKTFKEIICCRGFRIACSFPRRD
Procedure: (§2) Receptor selectivity of peptide agonists for hMC1R was determined by stimulation of cAMP in heterologous cells expressing different human melanocortin receptors (MC1R, MC3R, MC4R, and MC5R).

[3] = target: T3, hMC4R (Homo sapiens, UniProt P32245); assay: cAMP stimulation in heterologous cells expressing hMC4R; assay type: cell-based
T3 construct: expressed in transfected cells
T3 sequence (P32245 whole entry): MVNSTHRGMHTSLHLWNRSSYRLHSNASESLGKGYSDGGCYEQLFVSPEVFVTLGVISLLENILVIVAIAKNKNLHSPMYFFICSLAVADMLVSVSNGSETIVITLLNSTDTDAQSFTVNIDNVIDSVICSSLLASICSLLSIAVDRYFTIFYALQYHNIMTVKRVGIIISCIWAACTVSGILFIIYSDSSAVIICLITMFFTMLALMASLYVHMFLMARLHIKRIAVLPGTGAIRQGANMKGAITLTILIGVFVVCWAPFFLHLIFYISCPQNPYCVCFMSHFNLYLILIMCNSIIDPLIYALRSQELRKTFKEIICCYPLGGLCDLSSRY
Procedure: as §2

[4] = target: T4, hMC3R (Homo sapiens, UniProt P41968); assay: cAMP stimulation in heterologous cells expressing hMC3R; assay type: cell-based
T4 construct: expressed in transfected cells
T4 sequence (P41968 whole entry): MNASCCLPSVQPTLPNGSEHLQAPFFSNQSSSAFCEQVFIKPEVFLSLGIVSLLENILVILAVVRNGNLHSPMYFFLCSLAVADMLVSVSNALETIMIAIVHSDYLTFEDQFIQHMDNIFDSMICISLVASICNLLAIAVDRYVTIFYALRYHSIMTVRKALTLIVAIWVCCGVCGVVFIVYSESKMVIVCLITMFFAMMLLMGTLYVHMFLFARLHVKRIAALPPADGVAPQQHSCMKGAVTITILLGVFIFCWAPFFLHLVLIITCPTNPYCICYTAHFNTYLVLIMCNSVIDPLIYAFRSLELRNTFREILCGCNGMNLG
Procedure: as §2

[5] = target: T1, MC1R; assay: cAMP stimulation in heterologous cells expressing hMC1R; assay type: cell-based; set-up: expressed in transfected cells
Procedure: as §2

[6] = Peptide storage stability by HPLC; assay type: physicochemical; conditions: lyophilized, open air, room temperature, 4 months
Procedure: LK-513 (Ph(CH2)3CO-His-(D-4-Bip)-Arg-NHMe) was tested for stability and degradation over a storage period. The peptide was stored in a lyophilized form in open air at room temperature for 4 months. After 4 months, HPLC was performed on a test sample of the peptide in order to measure degradation, using standard methods (FIG. 1). […] Without being bound by theory, it is believed that the enhanced stability is a product of the absence of amide bonds between natural L-L-amino acids in the tripeptides and the existence of only one amide bond between natural amino acids in the tetrapeptides (Arg-Trp). Amide bonds between non-natural D- and natural L-amino acids are less prone to chemical and enzymatic hydrolysis, as evidenced by the FIG. 1. Further, the bulk and hydrophobicity of the X4 amino acid (D-Phe or a bulky hydrophobic analog thereof, such as D-4-Bip in the case of LK-513) shield the polar amid bonds of the peptide from chemical and enzymatic degradation.

[7] = test system: tyrosinase; assay: Stimulation of tyrosinase activity in cultured human melanocytes; assay type: cell-based
Procedure: Peptides were tested on cultured human melanocytes for their capacity for stimulating tyrosinase activity, the rate-limiting enzyme for melanin synthesis. Melanocytes were treated every other day, for a total of 6 days, with increasing concentrations of peptides. Medium containing H^3-tyrosine, the substrate for tyrosinase, was added to melanocytes 24 hours before the end of the 6-day treatment. Tyrosinase activity was measured by determining the amount of ^3H2O generated as […] is catalyzed by tyrosinase for melanin synthesis.
as §1

[8] = test system: mouse MCRs; conditions: cited from earlier work
[9] = test system: human melanocytes; assay: Potency in human melanocytes; assay type: cell-based

T1 sequence (Q01726 whole entry): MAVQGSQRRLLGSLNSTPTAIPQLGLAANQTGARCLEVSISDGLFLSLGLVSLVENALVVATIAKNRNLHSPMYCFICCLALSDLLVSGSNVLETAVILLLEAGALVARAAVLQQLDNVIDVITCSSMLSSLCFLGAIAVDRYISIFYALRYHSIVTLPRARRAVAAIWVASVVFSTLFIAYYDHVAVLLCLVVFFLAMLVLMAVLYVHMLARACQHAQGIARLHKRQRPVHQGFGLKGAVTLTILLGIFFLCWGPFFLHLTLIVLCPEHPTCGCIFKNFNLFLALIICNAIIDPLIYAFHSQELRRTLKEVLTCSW

cAMP compared to 10 nM αMSH ([1]; cultured human melanocytes)	binding of MC5R [2]	binding of MC4R [3]	binding of MC3R [4]	potency in activation of MC1R compared with MT-II [5]	HMC1R % MAX. ACTIVITY ([5]; cAMP, heterologous cells)	concentration at which significant stimulation of tyrosinase activity begins ([7]; human melanocytes, 6 days treatment)	TA compared to 10 nM αMSH ([7]; tyrosinase activity, cultured human melanocytes)	Compound	potency in stimulating cAMP formation, comparison ([1]; human melanocytes, 45 minutes of treatment)	stability and degradation on storage (HPLC) [6]	MC1R selectivity and potency compared to tripeptide LK-394 [8]	potency in human melanocytes [9]
<	do not bind	do not bind	do not bind	about as potent as MT-II	95%	1 nM	<	CNC(=O)[C@H](CCCNC(=N)N)NC(=O)[C@@H](Cc1ccc(-c2ccccc2)cc1)NC(=O)[C@H](Cc1c[nH]cn1)NC(=O)CCCc1ccccc1 [LK-513, Ph(CH2)3CO-His-(D-4-Bip)-Arg-NHMe]	about ten times less potent than a-MSH; also recorded: about ten times less potent than α-MSH	highly stable and resistant to degradation, showing only a single HPLC peak; also recorded: highly stable and substantially free of degradation		
								trans-4-HOC6H4CH═CHCO-His-D-Phe-Arg-NH2			moderately increased MC1R selectivity and potency	less potent in human melanocytes
